Experimental data reported in patent US9540343B2 (Gilead Sciences, Inc., priority 2011, dated 2017).

Key:
in vitro = conditions: human, uninfected MT-4 cells, CC50 (nM), same protocol as Test A, CellTiter-Glo
Description: For the antiviral assay, 40 μL of 1× test concentration of 3-fold serially diluted compound in culture medium with 10% FBS was added to each well of a 384-well plate (10 concentrations) in quadruplicate. MT-4 cells were next mixed with HIV-IIIb at an m.o.i of 0.003 for 1 hour, after which time 35 μL of virus/cell mixture (2000 cells) was immediately added to each well containing 40 μL of diluted compound. The plates were then incubated at 37° C. for 5 days. After 5 days of incubation, 25 μl of 2× concentrated CellTiter-Glo™ Reagent (catalog #G7571, Promega Biosciences, Inc., Madison, Wis.) was added to each well containing MT-4 cells. Cell lysis was carried out by incubating at room temperature for 10 min and then chemiluminescence was read.
Test B: Cytotoxicity Assay
Compound cytotoxicity and the corresponding CC50 values was determined using the same protocol as described in the antiviral assay (Test A) except that uninfected cells were used.

HIV-IIIb = test: Test A: Antiviral assay in MT4 cells; format: cell-based, HIV-1; conditions: Human immunodeficiency virus 1, IIIB, MT4, 120 h, read-out: % inhibition at 2 μM, percent inhibition of virus-induced cell killing, from dose response curve at 2 uM drug; MT-4 cells infected with HIV-IIIb, 5 days, CellTiter-Glo

Compound | CC50 at 5 days (in vitro) [nM] | inhibition at 2 µM (HIV-IIIb) [%]
N#Cc1cccc(-c2cccnc2[C@H](Cc2cc(F)cc(F)c2)NC(=O)Cc2c[nH]c3ccc(O)cc23)c1 [Example 38E, (S)—N-(1-(3-(3-cyanophenyl)pyridin-2-yl)-2-(3,5-difluorophenyl)ethyl)-2-(5-hydroxy-1H-indol-3-yl)acetamide] | 28600 | 86
NC(=O)c1cc(-c2cccnc2[C@H](Cc2cc(F)cc(F)c2)NC(=O)Cc2c[nH]c3ccc(O)cc23)ccc1Cl [Example 40, (S)-2-chloro-5-(2-(2-(3,5-difluorophenyl)-1-(2-(5-hydroxy-1H-indol-3-yl)acetamido)ethyl)pyridin-3-yl)benzamide] | > 48900 | 99
NC(=O)c1cc(-c2cccnc2[C@H](Cc2cc(F)cc(F)c2)NC(=O)Cc2c[nH]c3ccc(O)cc23)ccc1F [Example 41, (S)-5-(2-(2-(3,5-difluorophenyl)-1-(2-(5-hydroxy-1H-indol-3-yl)acetamido)ethyl)pyridin-3-yl)-2-fluorobenzamide] | > 53000 | 97
NC(=O)c1ccc(-c2cccnc2[C@H](Cc2cc(F)cc(F)c2)NC(=O)Cc2c[nH]c3ccc(O)cc23)cc1 [Example 42, (S)-4-(2-(2-(3,5-difluorophenyl)-1-(2-(5-hydroxy-1H-indol-3-yl)acetamido)ethyl)pyridin-3-yl)benzamide] | > 53000 | 96
NS(=O)(=O)c1ccc(-c2cccnc2[C@H](Cc2cc(F)cc(F)c2)NC(=O)Cc2c[nH]c3ccc(O)cc23)cc1 [Example 43, (S)—N-(2-(3,5-difluorophenyl)-1-(3-(4-sulfamoylphenyl)pyridin-2-yl)ethyl)-2-(5-hydroxy-1H-indol-3-yl)acetamide] | > 53000 | 28
NS(=O)(=O)c1cccc(-c2cccnc2[C@H](Cc2cc(F)cc(F)c2)NC(=O)Cc2c[nH]c3ccc(O)cc23)c1 [Example 44, (S)—N-(2-(3,5-difluorophenyl)-1-(3-(3-sulfamoylphenyl)pyridin-2-yl)ethyl)-2-(5-hydroxy-1H-indol-3-yl)acetamide] | > 52500 | 96
CNC(=O)c1ccc(-c2cccnc2[C@H](Cc2cc(F)cc(F)c2)NC(=O)Cc2c[nH]c3ccc(O)cc23)cc1 [Example 45, (S)-4-(2-(2-(3,5-difluorophenyl)-1-(2-(5-hydroxy-1H-indol-3-yl)acetamido)ethyl)pyridin-3-yl)-N-methylbenzamide] | > 53000 | 32
CNC(=O)c1cccc(-c2cccnc2[C@H](Cc2cc(F)cc(F)c2)NC(=O)Cc2c[nH]c3ccc(O)cc23)c1 [Example 46, (S)-3-(2-(2-(3,5-difluorophenyl)-1-(2-(5-hydroxy-1H-indol-3-yl)acetamido)ethyl)pyridin-3-yl)-N-methylbenzamide] | > 53000 | 87
CN(C)C(=O)c1ccc(-c2cccnc2[C@H](Cc2cc(F)cc(F)c2)NC(=O)Cc2c[nH]c3ccc(O)cc23)cc1 [Example 47, (S)-4-(2-(2-(3,5-difluorophenyl)-1-(2-(5-hydroxy-1H-indol-3-yl)acetamido)ethyl)pyridin-3-yl)-N,N-dimethylbenzamide] | > 53000 | 59
CN(C)C(=O)c1cccc(-c2cccnc2[C@H](Cc2cc(F)cc(F)c2)NC(=O)Cc2c[nH]c3ccc(O)cc23)c1 [Example 48, (S)-3-(2-(2-(3,5-difluorophenyl)-1-(2-(5-hydroxy-1H-indol-3-yl)acetamido)ethyl)pyridin-3-yl)-N,N-dimethylbenzamide] | > 53000 | 74
O=C(Cc1c[nH]c2ccc(O)cc12)N[C@@H](Cc1cc(F)cc(F)c1)c1ncccc1-c1cccc(-c2nnn[nH]2)c1 [Example 49] | 562 | 0
NC(=O)c1cccc(-c2cccnc2[C@H](Cc2cc(F)cc(F)c2)NC(=O)Cc2c[nH]c3ccc(=O)[nH]c23)c1 [Example 51, (S)-3-(2-(2-(3,5-difluorophenyl)-1-(2-(5-oxo-4,5-dihydro-1H-pyrrolo[3,2-b]pyridin-3-yl)acetamido)ethyl)pyridin-3-yl)benzamide] | > 53000 | 52
CC1CCCc2c(C(F)(F)F)nn(CC(=O)N[C@@H](Cc3cc(F)cc(F)c3)c3ncccc3-c3cccc(C(N)=O)c3)c21 (stereo partly drawn) [Example 52, 3-(2-((1S)-2-(3,5-difluorophenyl)-1-(2-(7-methyl-3-(trifluoromethyl)-4,5,6,7-tetrahydro-1H-indazol-1-yl)acetamido)ethyl)pyridin-3-yl)benzamide] | 13300 | 92
O=C(Cc1c[nH]c2ccc(O)cc12)N[C@@H](Cc1cc(F)cc(F)c1)c1ncccc1C#CC1CC1 [Example 53, (S)—N-(1-(3-(cyclopropylethynyl)pyridin-2-yl)-2-(3,5-difluorophenyl)ethyl)-2-(5-hydroxy-1H-indol-3-yl)acetamide] | 28300 | 33
NC(=O)c1cc(-c2cccnc2[C@H](Cc2cc(F)cc(F)c2)NC(=O)Cc2c[nH]c3ccc(C(F)(F)F)cc23)ccc1F [Example 54G, (S)-5-(2-(2-(3,5-difluorophenyl)-1-(2-(5-(trifluoromethyl)-1H-indol-3-yl)acetamido)ethyl)pyridin-3-yl)-2-fluorobenzamide] | 10300 | 111
NC(=O)c1cc(-c2cccnc2[C@H](Cc2cc(F)cc(F)c2)NC(=O)Cc2c[nH]c3ccc(F)cc23)ccc1F [Example 55F, (S)-5-(2-(2-(3,5-difluorophenyl)-1-(2-(5-fluoro-1H-indol-3-yl)acetamido)ethyl)pyridin-3-yl)-2-fluorobenzamide] | 21600 | 101
NC(=O)c1cc(-c2cccnc2[C@H](Cc2cc(F)cc(F)c2)NC(=O)Cn2ccc3ccc4ccccc4c32)ccc1F [Example 56B, (S)-5-(2-(1-(2-(1H-benzo[g]indol-1-yl)acetamido)-2-(3,5-difluorophenyl)ethyl)pyridin-3-yl)-2-fluorobenzamide] | 18900 | 4
CS(=O)(=O)c1cccc(-c2cccnc2[C@H](Cc2cc(F)cc(F)c2)NC(=O)Cn2nc(C(F)(F)F)c3c2CCCC3)c1 [Example 57B, (S)—N-(2-(3,5-difluorophenyl)-1-(3-(3-(methylsulfonyl)phenyl)pyridin-2-yl)ethyl)-2-(3-(trifluoromethyl)-4,5,6,7-tetrahydro-1H-indazol-1-yl)acetamide] | 13300 | 98
CCc1c(Br)c(C(F)(F)F)nn1CC(=O)N[C@@H](Cc1cc(F)cc(F)c1)c1ncccc1-c1ccc(F)c(C(N)=O)c1 [Example 58D, (S)-5-(2-(1-(2-(4-bromo-5-ethyl-3-(trifluoromethyl)-1H-pyrazol-1-yl)acetamido)-2-(3,5-difluorophenyl)ethyl)pyridin-3-yl)-2-fluorobenzamide] | 10000 | 14
Cc1cc(C)c2c(c1)NC(=O)C2CC(=O)N[C@@H](Cc1cccc(F)c1)c1ncccc1-c1ccc(F)c(C(N)=O)c1 (stereo partly drawn) [Example 59E, 5-(2-((1S)-1-(2-(4,6-dimethyl-2-oxoindolin-3-yl)acetamido)-2-(3-fluorophenyl)ethyl)pyridin-3-yl)-2-fluorobenzamide] | 45100 | 75
